Laboratory results from the supplement of paper PMC10307832.

The cell lines below were run with O=C(/C=C/c1ccccc1)NC(NC(=S)Nc1cccc2cccnc12)C(Cl)(Cl)Cl [Salubrinal] + CCNC(=O)c1noc(-c2cc(C(C)C)c(O)cc2O)c1-c1ccc(CN2CCOCC2)cc1 [Luminespib] (partner 0.01 µM) (assay: relative viability (nuclei count vs DMSO), 5 days (fraction); higher = more cells survive). Settings: first compound 0.8 µM.
In short: (§1)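 For relative viability, nuclei counts in treated wells were divided by those in vehicle wells. Lung cancer cell lines had been pin-tool dosed in 1536-well plates the day after seeding and cultured for 5 days, then fixed and stained in one step (final 0.05% Triton X-100, 1% formaldehyde, 1 ug/ml Hoechst) and imaged at 4×. Doses were one drug alone or a fixed anchor-drug dose plus five library-drug doses (not always all listed) in √10 steps, and values are duplicate-plate medians.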

Going from NCI-H358 to NCI-H2170, the relative viability rises from 0.553 to 0.642.

First: H3255
Second: COR-L23
The relative viability of the first is higher: 1.14 for the first, 0.587 for the second.

Going from COR-L 105 to LOU-NH91, the relative viability falls from 0.761 to 0.358.

Going from ChaGo-K-1 to NCI-H1793, the relative viability falls from 0.604 to 0.206.

Going from NCI-H2405 to HOP-62, the relative viability rises from 0.62 to 0.968.

First: HCC-44
Second: SW 900
The relative viability of the first is higher: 1.09 for the first, 0.175 for the second.

Going from NCI-H1623 to NCI-H1563, the relative viability falls from 0.541 to 0.521.

ABC-1 showed a relative viability of 0.8.

Same assay, conditions: first compound 2.53 µM

First: NCI-H522
Second: NCI-H2342
The relative viability of the first is higher: 1.12 for the first, 0.601 for the second.

Compared with NCI-H727, NCI-H1650 is lower in relative viability: 0.312 for the first, 0.19 for the second.

Going from NCI-H1993 to SW 1573, the relative viability falls from 0.896 to 0.238.

Compared with NCI-H838, LCLC-103H is higher in relative viability: 0.341 for the first, 1.04 for the second.

Going from NCI-H520 to NCI-H2126, the relative viability rises from 0.217 to 0.951.

First: EMC-BAC-2
Second: NCI-H2085
The relative viability of the first is higher: 1.16 for the first, 0.366 for the second.

First: NCI-H1666
Second: NCI-H596
The relative viability of the first is lower: 0.945 for the first, 1.2 for the second.

Compared with LK-2, NCI-H2087 is lower in relative viability: 0.211 for the first, 0.187 for the second.

Compared with NCI-H358, NCI-H2170 is higher in relative viability: 0.478 for the first, 0.643 for the second.

Compared with H3255, COR-L23 is lower in relative viability: 0.847 for the first, 0.773 for the second.

First: COR-L 105
Second: LOU-NH91
The relative viability of the first is higher: 0.812 for the first, 0.305 for the second.

Going from ChaGo-K-1 to NCI-H1793, the relative viability falls from 0.437 to 0.162.

First: NCI-H2405
Second: HOP-62
The relative viability of the first is lower: 0.612 for the first, 0.882 for the second.

Compared with HCC-44, SW 900 is lower in relative viability: 1.02 for the first, 0.189 for the second.

First: NCI-H1623
Second: NCI-H1563
The relative viability of the first is lower: 0.435 for the first, 0.488 for the second.

Cell Line ABC-1 has a relative viability of 0.473.

Same assay, conditions: first compound 8 µM

First: NCI-H522
Second: NCI-H2342
The relative viability of the first is higher: 1.11 for the first, 0.799 for the second.

First: NCI-H727
Second: NCI-H1650
The relative viability of the first is higher: 0.274 for the first, 0.216 for the second.

Compared with NCI-H1993, SW 1573 is lower in relative viability: 0.827 for the first, 0.169 for the second.

Going from NCI-H838 to LCLC-103H, the relative viability rises from 0.272 to 0.916.

Compared with NCI-H520, NCI-H2126 is higher in relative viability: 0.203 for the first, 0.877 for the second.

First: EMC-BAC-2
Second: NCI-H2085
The relative viability of the first is higher: 1.11 for the first, 0.496 for the second.

Going from NCI-H1666 to NCI-H596, the relative viability falls from 1.1 to 0.92.

Compared with LK-2, NCI-H2087 is higher in relative viability: 0.166 for the first, 0.183 for the second.

Compared with NCI-H358, NCI-H2170 is higher in relative viability: 0.38 for the first, 0.714 for the second.

Compared with H3255, COR-L23 is lower in relative viability: 0.786 for the first, 0.728 for the second.

Going from COR-L 105 to LOU-NH91, the relative viability falls from 0.738 to 0.386.

Going from ChaGo-K-1 to NCI-H1793, the relative viability falls from 0.588 to 0.244.

First: NCI-H2405
Second: HOP-62
The relative viability of the first is lower: 0.668 for the first, 0.861 for the second.

First: HCC-44
Second: SW 900
The relative viability of the first is higher: 0.894 for the first, 0.207 for the second.

First: NCI-H1623
Second: NCI-H1563
The relative viability of the first is lower: 0.441 for the first, 0.506 for the second.

ABC-1 showed a relative viability of 0.728.

The cell lines below were run with O=C(/C=C/c1ccccc1)NC(NC(=S)Nc1cccc2cccnc12)C(Cl)(Cl)Cl [Salubrinal] + C[C@]1(O)C[C@@H](c2nc(-c3ccc4ccc(-c5ccccc5)nc4c3)c3c(N)nccn32)C1 [Linsitinib] (partner 1 µM) in the same assay as above. Settings: first compound 0.08 µM.
In short: as §1

First: NCI-H727
Second: EBC-1
The relative viability of the first is lower: 0.347 for the first, 0.767 for the second.
